From US6537990B1, “Combined preparations comprising morpholine anthracyclines and anticancer agent” (priority 1999, dated 2003)
Where “and” joins values, the source holds several entries; their conditions need not be identical. Identical values can stand only once. Counter-ions that a name gives are not always drawn. Like-named read-outs stand apart in the source and are kept apart here.

Columns and labels:
[1] = tested on: tumor cells resistant to L-PAM, cisplatin (cDDP), CTX or Topoisomerase II inhibitors; conditions: cited from earlier work
[2] = tested on: tumor cells resistant to anthracyclines and presenting the mdr phenotype; conditions: in vitro and in vivo; cited from earlier work
[3] = tested on: disseminated L1210 murine leukemia; assay: Antileukemic activity against disseminated L1210 murine leukemia; assay type: in vivo, CD2F1 mice
[4] = in vivo; cited from earlier work

Structure (SMILES) | Cross-resistance on resistant tumor cells ([1]; tumor cells resistant to CTX, L-Pam and cDDP) | Activity on tumor cells resistant to anthracyclines and presenting the mdr phenotype [2] | Cross-resistance on resistant tumor cells ([1]; tumor cells resistant to L-PAM or cisplatin (cDDP), or to Topoisomerase II inhibitors (at-multidrug resistant)) | ILS % (Increased in Life Span) ([3]; PNU-152243 alone, 0.05 mg/Kg/day iv, days +1, 2) | Tox (Number of toxic deaths/number of mice) ([3]; PNU-152243 alone, 0.05 mg/Kg/day iv, days +1, 2, HCl, 0.05 mg/kg/day) | Tox (Number of toxic deaths/number of mice) ([3]; PNU-152243 alone, 0.05 mg/Kg/day iv, days +1, 2, listed as PNU 152243, HCl, 0.05 mg/kg/day) | Optimal i.v. dose, fold less than that of doxorubicin [4] | ILS % (Increased in Life Span) ([3]; cDDP alone, 5.9 mg/Kg/day iv, day +3) | Tox (Number of toxic deaths/number of mice) ([3]; cDDP alone, 5.9 mg/Kg/day iv, day +3, 5.9 mg/kg/day) | ILS % (Increased in Life Span) ([3]; cDDP alone, 7.7 mg/Kg/day iv, day +3) | Tox (Number of toxic deaths/number of mice) ([3]; cDDP alone, 7.7 mg/Kg/day iv, day +3, 7.7 mg/kg/day)
CCC1(O)CC(OC2CC(N3CCOCC3)C(O)C(C)O2)c2c(O)c3c(c(O)c2C1O)C(=O)c1cccc(O)c1C3=O (stereo not drawn) [MX2, 3′-deamino-3′(4-morpholinyl)-13-deoxo-10-hydroxy-carminomycin] | No cross-resistance | active | – | – | – | – | – | – | – | – | –
COc1cccc2c1C(=O)c1c(O)c3c(c(O)c1C2=O)C[C@@](O)(C(=O)CO)C[C@@H]3O[C@H]1C[C@H](N2CCO[C@H](OC)C2)[C@H](O)[C@H](C)O1 [PNU-152243, 3′deamino-3′(2-methoxy-4-morpholinyl)doxorubicin. HCl] | – | active | No cross-resistance | 50% | 0/10 | without toxicity | at least 80 fold | – | – | – | –
[NH2][Pt]([NH2])([Cl])[Cl] [cDDP, cisplatin] | – | – | – | – | – | – | – | 33% | without toxicity and 0/10 | 33% | without toxicity and 0/10
